Patent US20250084056A1, “SUBSTITUTED OXOISOINDOLINYL PIPERIDINE-2,6-DIONE COMPOUNDS” (BRISTOL-MYERS SQUIBB COMPANY, priority 2023, published 2025)

Experiments:
Assay type in all cases: cell-based
[1] = target: Cyclin E1 (Homo sapiens, UniProt P24864+Q96SW2); assay: Cyclin E1 Cellular Degradation Assay (MSD); parameters: endogenous in cells; host or cells: OVCAR3; details: for Ratio of GSPT1 DC50/Cyclin E1 DC50: selectivity for degradation of Cyclin E1 over GSPT1
Procedure, shortened: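 Cyclin E1 remaining after 24 h compound exposure of OVCAR3 cells was quantified in lysates by electrochemiluminescent MSD sandwich assay. DC50 (50% response concentration) and Dmax (maximum response) were calculated, with 110% response set by a reference compound at […].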

[2] = system: Phospho-Rb (Ser807/811); assay: Phospho-Retinoblastoma (pRB) Cellular Assay; details: NIH OVCAR3 cells, 24 hours; for IC50: concentration giving 50% response; for Emax: read-out: pRB Ymax
Procedure, shortened: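 Phospho-Rb (Ser807/811) kit read-out on EnVision after lysis (≥4 h, room temperature, dark) of OVCAR3 cells exposed to compound dilutions for 24 h. IC50 and maximum response Ymax are relative to a 10 μM reference compound defining 100%.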

[3] = target: GSPT1 (Homo sapiens, UniProt P15170+Q96SW2); assay: GSPT1 Cellular Degradation Assay (DF15-GSPT1-ePL); parameters: expressed in transfected cells; details: DF15-GSPT1-ePL cells, 20 hours
Sequence of GSPT1 (P15170 whole entry, the tested form may be a part): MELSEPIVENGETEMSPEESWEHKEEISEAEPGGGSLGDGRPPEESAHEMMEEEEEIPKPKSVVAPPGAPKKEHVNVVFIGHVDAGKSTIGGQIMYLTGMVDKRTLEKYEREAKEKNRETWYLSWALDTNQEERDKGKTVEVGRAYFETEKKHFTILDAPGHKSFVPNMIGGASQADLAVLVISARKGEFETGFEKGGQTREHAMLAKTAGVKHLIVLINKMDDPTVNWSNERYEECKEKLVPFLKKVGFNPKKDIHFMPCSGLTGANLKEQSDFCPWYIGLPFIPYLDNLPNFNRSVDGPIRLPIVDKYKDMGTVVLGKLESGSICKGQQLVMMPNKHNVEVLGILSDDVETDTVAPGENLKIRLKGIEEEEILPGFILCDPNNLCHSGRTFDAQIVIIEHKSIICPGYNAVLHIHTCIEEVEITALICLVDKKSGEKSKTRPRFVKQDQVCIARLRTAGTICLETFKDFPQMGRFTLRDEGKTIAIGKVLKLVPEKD
Sequence of GSPT1 (Q96SW2 whole entry, the tested form may be a part): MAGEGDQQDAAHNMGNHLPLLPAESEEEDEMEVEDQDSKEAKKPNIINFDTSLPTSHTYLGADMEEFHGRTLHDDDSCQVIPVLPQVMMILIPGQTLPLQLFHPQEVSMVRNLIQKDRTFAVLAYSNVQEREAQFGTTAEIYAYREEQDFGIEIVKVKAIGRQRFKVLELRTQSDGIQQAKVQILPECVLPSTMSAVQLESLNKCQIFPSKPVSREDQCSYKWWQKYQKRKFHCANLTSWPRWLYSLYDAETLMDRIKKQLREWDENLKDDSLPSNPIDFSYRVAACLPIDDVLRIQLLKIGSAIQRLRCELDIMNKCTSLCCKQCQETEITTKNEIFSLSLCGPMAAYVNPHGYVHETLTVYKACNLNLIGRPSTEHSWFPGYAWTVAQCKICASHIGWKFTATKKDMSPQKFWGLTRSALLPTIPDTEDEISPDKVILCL
Sequence of GSPT1 (Q16531 whole entry partner, the tested form may be a part): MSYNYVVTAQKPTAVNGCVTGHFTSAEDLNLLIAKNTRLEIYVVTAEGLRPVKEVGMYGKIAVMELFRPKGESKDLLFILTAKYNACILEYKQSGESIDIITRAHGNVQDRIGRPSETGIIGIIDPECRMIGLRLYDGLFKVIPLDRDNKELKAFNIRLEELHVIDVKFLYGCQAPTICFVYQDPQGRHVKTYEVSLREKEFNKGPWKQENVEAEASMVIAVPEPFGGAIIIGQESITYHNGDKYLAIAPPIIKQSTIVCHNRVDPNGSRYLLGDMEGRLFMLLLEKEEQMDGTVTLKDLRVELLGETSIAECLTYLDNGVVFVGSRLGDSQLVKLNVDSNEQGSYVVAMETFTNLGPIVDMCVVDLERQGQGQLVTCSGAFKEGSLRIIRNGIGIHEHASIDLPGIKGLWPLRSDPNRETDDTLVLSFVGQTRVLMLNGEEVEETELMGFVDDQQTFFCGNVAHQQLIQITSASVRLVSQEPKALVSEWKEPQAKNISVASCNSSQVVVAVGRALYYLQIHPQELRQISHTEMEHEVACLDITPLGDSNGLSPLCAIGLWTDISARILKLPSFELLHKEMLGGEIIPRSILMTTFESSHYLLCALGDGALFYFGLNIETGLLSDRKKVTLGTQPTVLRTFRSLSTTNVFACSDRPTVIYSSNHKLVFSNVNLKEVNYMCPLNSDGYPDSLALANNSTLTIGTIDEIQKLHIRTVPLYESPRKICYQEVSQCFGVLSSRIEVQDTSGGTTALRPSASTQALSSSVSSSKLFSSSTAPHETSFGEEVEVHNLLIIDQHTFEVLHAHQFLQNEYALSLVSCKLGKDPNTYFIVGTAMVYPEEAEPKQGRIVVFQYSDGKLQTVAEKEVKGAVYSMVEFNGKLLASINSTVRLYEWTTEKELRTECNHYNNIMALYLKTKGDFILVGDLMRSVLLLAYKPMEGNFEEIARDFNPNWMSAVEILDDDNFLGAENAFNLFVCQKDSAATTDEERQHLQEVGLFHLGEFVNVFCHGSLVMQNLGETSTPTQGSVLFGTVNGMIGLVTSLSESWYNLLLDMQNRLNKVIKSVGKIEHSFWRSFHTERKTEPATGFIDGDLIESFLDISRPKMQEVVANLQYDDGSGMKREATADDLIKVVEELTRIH
Procedure, shortened: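 DC50 and Dmax were derived from chemiluminescence, with 75% response set by the reference compound at […]. Readout was ePL enzyme-fragment complementation in a DF15 line expressing chimeric GSPT1. Cells were exposed to compound for 20 h at 37 °C in RPMI 1640 with 10% FBS, cooled 30 min, then lysed with substrate for 60 min.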

[4] = Cyclin E1 cellular degradation, maximum degradation
[5] = Homo sapiens, OVCAR-3, maximum response, reference compound at 10 μM = 100%

Sequence of Cyclin E1 (P24864 whole entry): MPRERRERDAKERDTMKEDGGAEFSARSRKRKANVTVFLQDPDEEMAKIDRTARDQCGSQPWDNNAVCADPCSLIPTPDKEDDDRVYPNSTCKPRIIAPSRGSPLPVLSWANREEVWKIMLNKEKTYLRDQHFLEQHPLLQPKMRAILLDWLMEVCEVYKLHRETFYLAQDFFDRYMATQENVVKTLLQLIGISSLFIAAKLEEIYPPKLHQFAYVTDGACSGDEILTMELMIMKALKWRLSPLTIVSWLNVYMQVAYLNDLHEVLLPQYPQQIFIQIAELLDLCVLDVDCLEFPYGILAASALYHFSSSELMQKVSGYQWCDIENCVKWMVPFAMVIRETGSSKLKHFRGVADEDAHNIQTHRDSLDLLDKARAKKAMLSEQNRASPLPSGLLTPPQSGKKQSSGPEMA
Sequence of Cyclin E1 (Q96SW2 whole entry): as the sequence (Q96SW2 whole entry, the tested form may be a part) above
Sequence of Cyclin E1 (Q16531 whole entry partner): as the sequence (Q16531 whole entry partner, the tested form may be a part) above

DC50 ([1]; Cyclin E1 cellular degradation)	Dmax [1, 4]	Ratio of GSPT1 DC50/Cyclin E1 DC50 [1]	IC50 ([2]; Homo sapiens, OVCAR-3)	DC50 [3]	Dmax [3]	IC50 [2]	Cyclin E1 Dmax [1, 4]	GSPT1 Dmax [3]	SMILES	Emax [2, 5]	pRB Ymax ([2]; maximum response, reference compound at 10 μM = 100%)
199 nM	110%	>70	133 nM	> 14000 nM	27%	–	–	–	COc1c(COC(=O)Nc2ccc(Oc3ccc(F)c(F)c3)cc2)ccc2c1C(=O)N(C1CCC(=O)NC1=O)C2 (centres unmarked) [Example 1, [2-(2,6-dioxopiperidin-3-yl)-4-methoxy-3-oxo-2,3-dihydro-1H-isoindol-5-yl]methyl N-[4-(3,4-difluorophenoxy)phenyl]carbamate]	104%	–
170 nM	–	–	–	> 14000 nM	–	34 nM	–	–	COc1c(COC(=O)Nc2ccc(Oc3ccccc3C)cc2)ccc2c1C(=O)N(C1CCC(=O)NC1=O)C2 (centres unmarked) [Example 92, [2-(2,6-dioxopiperidin-3-yl)-4-methoxy-3-oxo-2,3-dihydro-1H-isoindol-5-yl]methyl N-{4-[2-(^2H3)methylphenoxy]phenyl}carbamate]	–	–
414 nM	100%	>34	272 nM	> 14000 nM	39%	–	–	–	COc1c(COC(=O)Nc2ccc(Oc3ccccc3C3CC3)cc2)ccc2c1C(=O)N(C1CCC(=O)NC1=O)C2 (centres unmarked) [Example 87, [2-(2,6-dioxopiperidin-3-yl)-4-methoxy-3-oxo-2,3-dihydro-1H-isoindol-5-yl]methyl N-[4-(2-cyclopropylphenoxy)phenyl]carbamate]	98%	–
17 nM	110%	>847	27 nM	> 14000 nM	5%	–	–	–	O=C1CCC(N2Cc3ccc(COC(=O)Nc4ccc(Oc5ccc(F)cc5)cc4F)c(OC4CCOCC4)c3C2=O)C(=O)N1 (centres unmarked) [Example 135, [2-(2,6-dioxopiperidin-3-yl)-4-(oxan-4-yloxy)-3-oxo-2,3-dihydro-1H-isoindol-5-yl]methyl N-[2-fluoro-4-(4-fluorophenoxy)phenyl]carbamate]	148%	–
77 nM	106%	>181	171 nM	> 14000 nM	24%	–	–	–	COc1cc(Oc2ccc(F)cc2F)ccc1NC(=O)OCc1ccc2c(c1OC)C(=O)N(C1CCC(=O)NC1=O)C2 (centres unmarked) [Example 49, [2-(2,6-dioxopiperidin-3-yl)-4-methoxy-3-oxo-2,3-dihydro-1H-isoindol-5-yl]methyl N-[4-(2,4-difluorophenoxy)-2-methoxyphenyl]carbamate]	116%	–
375 nM	112%	>37	128 nM	> 14000 nM	31%	–	–	–	COc1c(COC(=O)Nc2ccc(Oc3ccccc3F)cc2)ccc2c1C(=O)N(C1CCC(=O)NC1=O)C2 (centres unmarked) [Example 79, [2-(2,6-dioxopiperidin-3-yl)-4-methoxy-3-oxo-2,3-dihydro-1H-isoindol-5-yl]methyl N-[4-(2-fluorophenoxy)phenyl]carbamate]	120%	–
111 nM	103%	>126	55 nM	> 14000 nM	19%	–	–	–	O=C1CCC(N2Cc3ccc(COC(=O)Nc4ccc(Oc5ccccc5Cl)cc4)c(Oc4ccccc4)c3C2=O)C(=O)N1 (centres unmarked) [Example 66, [2-(2,6-dioxopiperidin-3-yl)-3-oxo-4-phenoxy-2,3-dihydro-1H-isoindol-5-yl]methyl N-[4-(2-chlorophenoxy)phenyl]carbamate]	148%	–
96 nM	101%	>146	440 nM	> 14000 nM	11%	–	–	–	COc1c(COC(=O)Nc2ccc(Cc3cccc(F)c3)cc2F)ccc2c1C(=O)N(C1CCC(=O)NC1=O)C2 (centres unmarked) [Example 20, [2-(2,6-dioxopiperidin-3-yl)-4-methoxy-3-oxo-2,3-dihydro-1H-isoindol-5-yl]methyl N-{2-fluoro-4-[(3-fluorophenyl)methyl]phenyl}carbamate]	103%	–
–	–	>82	–	–	–	–	114%	23%	[2H]C([2H])([2H])c1ccccc1Oc1ccc(NC(=O)OCc2ccc3c(c2OC)C(=O)N(C2CCC(=O)NC2=O)C3)cc1 (centres unmarked) [Example 92, [2-(2,6-dioxopiperidin-3-yl)-4-methoxy-3-oxo-2,3-dihydro-1H-isoindol-5-yl]methyl N-{4-[2-(^2H3)methylphenoxy]phenyl}carbamate]	–	112%
91 nM	112%	>153	103 nM	> 14000 nM	34%	–	–	–	COc1c(COC(=O)Nc2ccc(Oc3cccc(Cl)c3)cc2)ccc2c1C(=O)N(C1CCC(=O)NC1=O)C2 (centres unmarked) [Example 3, [2-(2,6-dioxopiperidin-3-yl)-4-methoxy-3-oxo-2,3-dihydro-1H-isoindol-5-yl]methyl N-[4-(3-chlorophenoxy)phenyl]carbamate]	120%	–
96 nM	106%	>146	132 nM	> 14000 nM	20%	–	–	–	COc1c(COC(=O)Nc2ccc(Oc3ccc(F)cc3F)cc2C)ccc2c1C(=O)N(C1CCC(=O)NC1=O)C2 (centres unmarked) [Example 42, [2-(2,6-dioxopiperidin-3-yl)-4-methoxy-3-oxo-2,3-dihydro-1H-isoindol-5-yl]methyl N-[4-(2,4-difluorophenoxy)-2-methylphenyl]carbamate]	110%	–
39 nM	108%	>355	89 nM	> 14000 nM	35%	–	–	–	COc1c(COC(=O)Nc2ccc(Oc3cccc(F)c3)cc2)ccc2c1C(=O)N(C1CCC(=O)NC1=O)C2 (centres unmarked) [Example 4, [2-(2,6-dioxopiperidin-3-yl)-4-methoxy-3-oxo-2,3-dihydro-1H-isoindol-5-yl]methyl N-[4-(3-fluorophenoxy)phenyl]carbamate]	109%	–
173 nM	106%	>81	72 nM	> 14000 nM	20%	–	–	–	COc1c(COC(=O)Nc2ccc(Oc3cccc(F)c3F)cc2)ccc2c1C(=O)N(C1CCC(=O)NC1=O)C2 (centres unmarked) [Example 110, [2-(2,6-dioxopiperidin-3-yl)-4-methoxy-3-oxo-2,3-dihydro-1H-isoindol-5-yl]methyl N-[4-(2,3-difluorophenoxy)phenyl]carbamate]	99%	–
31 nM	110%	>445	66 nM	> 14000 nM	8%	–	–	–	O=C1CCC(N2Cc3ccc(COC(=O)Nc4ccc(Oc5cccc(F)c5)cc4)c(O[C@@H]4CCCOC4)c3C2=O)C(=O)N1 (stereo partly drawn) [Example 143, [2-(2,6-dioxopiperidin-3-yl)-4-[(3R)-oxan-3-yloxy]-3-oxo-2,3-dihydro-1H-isoindol-5-yl]methyl N-[4-(3-fluorophenoxy)phenyl]carbamate]	153%	–
316 nM	113%	>44	165 nM	> 14000 nM	2%	–	–	–	COc1c(COC(=O)Nc2ccc(Oc3cc(F)c(F)cc3C)cc2)ccc2c1C(=O)N(C1CCC(=O)NC1=O)C2 (centres unmarked) [Example 78, [2-(2,6-dioxopiperidin-3-yl)-4-methoxy-3-oxo-2,3-dihydro-1H-isoindol-5-yl]methyl N-[4-(4,5-difluoro-2-methylphenoxy)phenyl]carbamate]	126%	–
204 nM	100%	>69	473 nM	> 14000 nM	16%	–	–	–	COC(=O)COc1c(COC(=O)Nc2ccc(Oc3ccc(F)c(F)c3)cc2)ccc2c1C(=O)N(C1CCC(=O)NC1=O)C2 (centres unmarked) [Example 174, Methyl 2-({5-[({[4-(3,4-difluorophenoxy)phenyl]carbamoyl}oxy)methyl]-2-(2,6-dioxopiperidin-3-yl)-3-oxo-2,3-dihydro-1H-isoindol-4-yl}oxy)acetate]	99%	–
61 nM	106%	>230	54 nM	> 14000 nM	16%	–	–	–	CC(C)Oc1c(COC(=O)Nc2ccc(Oc3ccccc3Cl)cc2)ccc2c1C(=O)N(C1CCC(=O)NC1=O)C2 (centres unmarked) [Example 122, [2-(2,6-dioxopiperidin-3-yl)-3-oxo-4-(propan-2-yloxy)-2,3-dihydro-1H-isoindol-5-yl]methyl N-[4-(2-chlorophenoxy)phenyl]carbamate]	122%	–
222 nM	111%	>63	53 nM	> 14000 nM	37%	–	–	–	COc1c(COC(=O)Nc2ccc(Oc3cc(F)c(F)cc3C)cc2C)ccc2c1C(=O)N(C1CCC(=O)NC1=O)C2 (centres unmarked) [Example 74, [2-(2,6-dioxopiperidin-3-yl)-4-methoxy-3-oxo-2,3-dihydro-1H-isoindol-5-yl]methyl N-[4-(4,5-difluoro-2-methylphenoxy)-2-methylphenyl]carbamate]	116%	–
